Common to all, as to format: binding
The target in test [1] is T1, mutant protein DAPKdel (ΔS52–S57) (Homo sapiens, UniProt P53355, DEL52-57).
T1 construct: encoding the DAPK catalytic domain (DAPKwt, open reading frame residues 1–285) or the mutant protein DAPKdel (ΔS52–S57); Strep-tag (pASK-IBA3 vector; purified on streptactin resin) (C); made in house; host or cells: Escherichia coli DH5α
Put plainly: Fluorescence polarization titration of the fluorescent probe with DAPKdel. Here is the method: (§1) Fluorescence polarization assays were performed using a Victor 3 apparatus (Perkin-Elmer Waltham, MA). The Lissamine Rhodamine B peptides based library (UMR 7200 CNRS, Strasbourg, France, Patent WO/2006/003330 [14]) was diluted in the assay buffer (50 mM HEPES, 150 mM KCl, 1 mM MgCl2, pH 7.5) to a working concentration of 0.2 µM. 15 µl of these dilutions were transferred to each well of the assay plate (Corning Costar 96-well black polystyrene plates, Model 3686, Corning, Acton, MA). All pipetting in HTS was performed on a Biomek® 2000 (Beckman Coulter, Fullerton, CA). Fluorescent polarization degrees (mFP) were measured at an excitation and emission wavelength of 530 and 610 nm, respectively. 15 µl of the assay buffer with DAPK, at a concentration of 4 µM, were added to each well. For each plate, background correction was performed with blank control wells containing no compounds.
(§2) All titration measurements were performed on a FlexStation 3 (Molecular Devices Union City, CA). The other experimental conditions were described in section “HTS of fluorescent peptides based library”. A twofold dilution cascade of the protein between 200 µM and 0.8 µM was prepared and 10 µl of these solutions were dispatched in 96-well assay plates. 10 µl of the probe solution (0.2 µM of CHPO 187-3-H11-para in assay buffer) were added to the wells and fluorescent polarization was recorded as specified before. Subsequently, 1 µl of concentrated ATP, ADP or substrate peptide (Tocris Bristol, UK) in assay buffer with 0.1 µM of the fluorescent probe was added to the wells, in order to subsequently obtain the following final concentrations of ATP, ADP or substrate peptide: 0.4, 0.8, 1.6, 3.2, 6.3, 12.5, 25, 50, and 1000 µM (the highest concentration was not performed for the peptide).
(§3) Titrations followed the same protocol as described under “ATP, ADP and substrate peptide titrations”, but under buffer conditions analogous to the ones listed under “nano-ESI-MS for the study of non-covalent complexes”. For investigations of the monomeric and the dimeric forms, NH4Ac concentrations were kept constant at 250 mM and 5 mM, respectively. To induce gradual monomerization of DAPK catalytic core, the NH4Ac concentration was stepwise augmented (5, 10, 25, 50, 100 and 250 mM) by the addition of a concentrated NH4Ac stock solution (1 M).

Test [2] addresses T2, DAPK catalytic domain (DAPKwt, residues 1–285) (Homo sapiens, UniProt P53355).
T2 construct: encoding the DAPK catalytic domain (DAPKwt, open reading frame residues 1–285); Strep-tag (pASK-IBA3 vector; purified on streptactin resin) (C); made in house; host or cells: Escherichia coli DH5α
Put plainly: Fluorescence polarization titration of the fluorescent probe with DAPKwt. How it is done: as §1, §2, §3

Test [3] concerns the target T3, DAPK catalytic domain (DAPKwt) (Homo sapiens, UniProt P53355).
T3 construct: encoding the DAPK catalytic domain (DAPKwt, open reading frame residues 1–285); Strep-tag (pASK-IBA3 vector; purified on streptactin resin) (C); made in house; host or cells: Escherichia coli DH5α
Put plainly: Fluorescence polarization titration of fluorophore labeled ATP with DAPKwt. The settings on record: pH 8.8, labeled ATP 0.1 µM. How it is done:
as §3
To determine the Kd values of γ-[6-Aminohexyl]-ATP-Atto495 (Jena Bioscience, Jena, Germany) its concentration was set to 0.1 µM, while the rest of the conditions were kept identical to the ones described above. Fluorescence polarization was recorded at an excitation and emission wavelength of 493 nm and 520 nm respectively.
Background: Polarisation of emitted light reports the rotation of a fluorescent probe.

Consider 2 compounds from publication PMC2994711, “Homodimerization of the Death-Associated Protein Kinase Catalytic Domain: Development of a New Small Molecule Fluorescent Reporter” (PLoS ONE, 2010).

Like-named read-outs stand apart in the source and are kept apart here.

T2 sequence (P53355 1-285): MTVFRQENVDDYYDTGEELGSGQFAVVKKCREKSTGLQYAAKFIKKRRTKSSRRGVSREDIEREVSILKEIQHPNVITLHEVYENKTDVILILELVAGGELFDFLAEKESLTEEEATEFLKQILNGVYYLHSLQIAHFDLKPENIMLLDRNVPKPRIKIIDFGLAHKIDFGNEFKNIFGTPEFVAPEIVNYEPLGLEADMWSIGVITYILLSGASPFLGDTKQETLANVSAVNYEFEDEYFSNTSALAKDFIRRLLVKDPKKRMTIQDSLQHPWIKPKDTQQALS
T1 sequence (P53355 with tags, fused parts or gaps DEL52-57): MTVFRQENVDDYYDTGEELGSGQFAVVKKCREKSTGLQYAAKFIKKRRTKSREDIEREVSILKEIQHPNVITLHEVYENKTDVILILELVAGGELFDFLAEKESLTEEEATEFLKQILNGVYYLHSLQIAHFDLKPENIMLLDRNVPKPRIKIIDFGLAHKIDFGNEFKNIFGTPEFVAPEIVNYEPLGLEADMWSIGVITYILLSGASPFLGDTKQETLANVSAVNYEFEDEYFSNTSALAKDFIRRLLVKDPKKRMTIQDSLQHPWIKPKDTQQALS
T3 sequence (P53355 1-285): as the sequence (P53355 1-285) above

The Kd is the equilibrium constant for the complex coming apart. As to `CCN(CC)c1ccc2c(-c3ccc(S(=O)(=O)NCCC(=O)N[C@@H](CCCNC(=N)N)C(=O)N[C@@H](Cc4ccc5ccccc5c4)C(=O)N[C@@H](CCCN)C(N)=O)cc3S(=O)(=O)[O-])c3ccc(=[N+](CC)CC)cc-3oc2c1` [CHPO 187-3-H11-para], the Kd in test [1] (5 mM NH4Ac, pH 8.8) amounted to 3.4 µM; in test [1] (250 mM NH4Ac, pH 8.8), 5.5 µM; in test [1] (HEPES buffer pH 7.5, absence of ATP or ADP) it was 20 µM; in test [1] (HEPES buffer pH 7.5, presence of ADP, ratio to DAPKdel higher than two) it was 33 µM; in test [1] (HEPES buffer pH 7.5, presence of ATP, ratio to DAPKdel higher than two), 28 µM; in test [2] (5 mM NH4Ac, pH 8.8, conditions favoring the dimer, probe 0.1 µM) it was 16.5 ± 1.2 µM. Moreover, the equilibrium dissociation constant (Kd) in test [2] (50 mM HEPES, 150 mM KCl, 1 mM MgCl2, pH 7.5, absence of ATP or ADP) was determined as 30.9 ± 2.8 µM; in test [2] (250 mM NH4Ac, pH 8.8, conditions favoring the monomer, probe 0.1 µM) it was 1.5 ± 0.2 µM; in test [2] (HEPES buffer pH 7.5, ATP or ADP to DAPK ratios higher than two (maximal effect)), 6.4 ± 0.54 µM.
For the compound γ-[6-Aminohexyl]-ATP-Atto495, the equilibrium dissociation constant (Kd) stood at 3.98 ± 0.22 µM in test [3] (5 mM NH4Ac, read-out: Kd of the labeled ATP for the DAPKwt dimer) and 0.29 ± 0.011 µM in test [3] (250 mM NH4Ac, read-out: Kd of the labeled ATP for the DAPKwt monomer).
